In patent US7271261B2, “Substituted benzimidazoles and imidazo-[4,5]-pyridines” (Ortho-McNeil Pharmaceutical, Inc., priority 2001, dated 2007):

What was measured:
[1] = tested on: spleen cells; experiment: Radiation-induced apoptosis in splenocytes in vivo; details: female C57/BL mice, 4Gy whole-animal γ-radiation, compared to animals dosed with vehicle alone
Method: Determination of the Effect of Cds1 Inhibitory Compounds on Radiation-Induced Apoptosis in Splenocytes in vivo
Female C57/BL mice, 6-8 weeks of age, were dosed by oral gavage or by injection with Cds1 inhibitory compound before and at regular intervals after radiation exposure. One to three hours after first compound dose, the animals were irradiated with γ-rays administered to the whole animal at a dose between 0.5 and 4 Gy. At times between 4 and 24 h after irradiation, the animals were sacrificed, and the tissues of interest were excised. […] Briefly, cells or tissues are fixed with formaldehyde and permeabilized with ethanol, and DNA ends are then labelled by attaching nucleotide derivatives such as BrdUTP using the enzyme terminal deoxynucleotidyl transferase. DNA ends can then be detected by incubating the cells or tissues with fluorescently-labelled antibodies reactive with BrdU. Quantification can be done by laser scanning cytometry, by visual microscopical examination or by FACS.

[2] = tested on: cells from an established tumor line; experiment: Effect of Cds1 inhibitory compounds on tumor cell line clonogenic survival; format: cell-based; details: compound exposure 12 to 48 h with DNA-damaging second agent; compared to control group having no compound
Method: Typically 3 to 300 cells from an established tumor line were plated per cm^2 in petri dishes in the appropriate growth medium at 37° C. Cells were exposed to compounds dissolved in the growth medium from appropriately formulated stock solutions for times ranging from 12 to 48 h. During the course of compound exposure the cells were treated with a second agent with DNA-damaging capabilities, such as ionizing radiation or certain chemotherapeutic compounds. After this treatment regimen cells were incubated in growth medium containing no compound for a period of 7 to 14 days. At that time the cells were fixed with methanol and stained with 0.25% crystal violet. The number of colonies of cells exceeding 50 cells was determined for each treatment, and this number was used to calculate the effect of compounds on the survival of cells.

[3] = tested on: spleen B cells; experiment: Radiation-induced apoptosis in isolated primary cells (Annexin V staining); format: cell-based, C57/BL6 mice; details: isolated C57/BL6 spleen cells, 0.5-1 Gy 137Cs γ-radiation, Annexin V/propidium iodide FACS 6-24 h after irradiation
Method: Determination of the Effect of Cds1 Inhibitory Compounds on Radiation-Induced Apoptosis in Isolated Primary Cells
Spleen cells were isolated from C57/BL6 mice as follows: Spleens were disrupted by grinding between two frosted glass slides, and cells were passed through a cell strainer. Erythrocytes were lysed by incubation in ammonium chloride solution followed by careful washing of cells in isotonic medium. The spleen cells were plated in 60 mm petri dishes at 5×10^6 cells/mL in RPMI medium containing 10% fetal calf serum and Cds1 inhibitor. […] Determination of apoptotic cells by Annexin V staining was performed using the Annexin V-FITC Apoptosis Detection Kit™ (Cat# PF032 Oncogene Research Products) according to the manufacturer's instructions. Briefly, 6-24 h after irradiation, the cells were washed with buffered isotonic salt solution and suspended at 1×10^6 cells/mL in binding buffer (10 mM Hepes pH 7.4, 150 mM NaCl, 2.5 mM CaCl2, 1 mM MgCl2, 4% bovine serum albumin) containing 80 ng/mL Annexin V labelled with FITC and 0.4 μg/mL anti-B220 antibody labelled with allophycocyanin. The cells were then pelleted and resuspended in binding buffer containing 0.6 μg/mL propidium iodide. The stained cells were analyzed on a FACS machine (Fluorescence Activated Cell Sorter™, Becton Dickinson). […] Fraction of non-apoptotic B-cells or total cells were determined separately based on staining with the B220 antibody mentioned above.

[4] = tested on: tumor cells from an established tumor cell line; experiment: Effect of Cds1 inhibitors on tumor growth in murine xenograft models; format: in vivo; details: xenograft in athymic nu/nu mice, compound plus local irradiation
Method: Effect of Cds1 Inhibitors on Tumor Growth in Murine Xenograft Models
One×10^6 to ten×10^6 tumor cells from an established tumor cell line are injected in the hind limbs of athymic nu/nu mice. Tumors are allowed to grow until they reach 30-100 mm^3. At that time mice are randomized into different treatment groups, and compound or vehicle is administered by injection or oral gavage. […] After this treatment tumor growth rate is followed by measurement of tumor size twice weekly in three orthogonal directions, which is used to calculate the tumor volume.

SMILES	protection of spleen B cells from radiation-induced apoptosis [3]	also measured
NC(=O)c1ccc2[nH]c(-c3ccc(Oc4ccc(Cl)cc4)cc3)nc2c1 [Example 1, 2-[4-(4-Chloro-phenoxy)-phenyl]-1H-benzoimidazole-5-carboxylic acid amide]	protected spleen B cells from radiation-induced apoptosis	protection of spleen cells from apoptosis [1]: protection of spleen cells from apoptosis was observed; number of colonies of cells (clonogenic survival) [2]: decrease in the number of colonies of cells; tumor growth rate (tumor volume) [4]: inconclusive
NC(=O)c1ccc2[nH]c(-c3ccc(Oc4ccc5ccccc5c4)cc3)nc2c1 [Example 9, 2-[4-(2-Naphthyloxy)-phenyl]-1H-benzoimidazole-5-carboxylic acid amide]	protected spleen B cells from radiation-induced apoptosis	–
NC(=O)c1ccc2[nH]c(-c3ccc(Oc4ccc(Br)cc4)cc3)nc2c1 [Example 11, 2-[4-(4-Bromo-phenoxy)-phenyl]-1H-benzoimidazole-5-carboxylic acid amide]	protected spleen B cells from radiation-induced apoptosis	–
NC(=O)c1ccc2[nH]c(-c3ccc(Sc4ccc(F)c(Cl)c4)cc3)nc2c1 [Example 38, 2-[4-(3-Chloro-4-fluoro-phenylsulfanyl)-phenyl]-1H-benzoimidazole-5-carboxylic acid amide]	protected spleen B cells from radiation-induced apoptosis	–
NC(=O)c1ccc2[nH]c(-c3ccc(Sc4ccc(Cl)cc4)nc3)nc2c1 [Example 42, 2-[6-(4-Chloro-phenylsulfanyl)-pyridin-3-yl]-1H-benzoimidazole-5-carboxylic acid amide]	protected spleen B cells from radiation-induced apoptosis	–
Cc1ccc(Sc2ccc(-c3nc4cc(C(N)=O)ccc4[nH]3)cn2)cc1 [Example 43, 2-[6-(4-Methyl-phenylsulfanyl)-pyridin-3-yl]-1H-benzoimidazole-5-carboxylic acid amide]	protected spleen B cells from radiation-induced apoptosis	–
NC(=O)c1ccc2[nH]c(-c3ccc(Oc4ccc5c(c4)OCO5)cc3)nc2c1 [Example 84, 2-[4-(Benzo[1,3]dioxol-5-yloxy)-phenyl]-1H-benzoimidazole-5-carboxylic acid amide]	protected spleen B cells from radiation-induced apoptosis	–
NC(=O)c1ccc2[nH]c(-c3ccc(Sc4ccc(O)cc4)cc3)nc2c1 [Example 87, 2-[4-(4-Hydroxy-phenylsulfanyl)-phenyl]-1H-benzoimidazole-5-carboxylic acid amide]	protected spleen B cells from radiation-induced apoptosis	–
NC(=O)c1ccc2[nH]c(-c3ccc(Oc4ccc(Br)c(O)c4)cc3)nc2c1 [Example 88, 2-[4-(4-Bromo-3-hydroxy-phenoxy)-phenyl]-1H-benzoimidazole-5-carboxylic acid amide]	protected spleen B cells from radiation-induced apoptosis	–
NS(=O)(=O)c1ccc2[nH]c(-c3ccc(Oc4ccc(Cl)cc4)cc3)nc2c1 [Example 94, 2-[4-(4-Chloro-phenoxy)-phenyl]-1H-benzoimidazole-5-sulfonic acid amide]	protected spleen B cells from radiation-induced apoptosis	–
NC(=O)c1ccc2[nH]c(-c3ccc(Oc4ccc(I)cc4)cc3)nc2c1 [Example 97, 2-[4-(4-Iodo-phenoxy)-phenyl]-1H-benzoimidazole-5-carboxylic acid amide]	protected spleen B cells from radiation-induced apoptosis	–
